Non-standard residues stand in square brackets, D forms with d. Residues, ends and D or L forms follow the SMILES beside them. *: point of attachment. X7 = CC(=O)N(C(=O)/C=C/c1ccc(F)cc1)[C@@H](Cc1ccc(F)cc1)C(=O)*; X3 = CC(=O)N(C(=O)/C=C/c1ccccc1)[C@@H](Cc1ccc(F)cc1)C(=O)*; Phe(4-guanidino) = N=C(N)Nc1ccc(C[C@H](N)C(=O)O)cc1; Phe(4-F) = N[C@@H](Cc1ccc(F)cc1)C(=O)O; Benzoyl(4-Cl) = O=C(c1ccc(Cl)cc1)*; X5 = O=C(c1cc2ccccc2[nH]1)*; Orn = NCCC[C@H](N)C(=O)O
Target: T1, Proteinase-activated receptor 1 (Homo sapiens, UniProt P25116)
T1 sequence (P25116 whole entry): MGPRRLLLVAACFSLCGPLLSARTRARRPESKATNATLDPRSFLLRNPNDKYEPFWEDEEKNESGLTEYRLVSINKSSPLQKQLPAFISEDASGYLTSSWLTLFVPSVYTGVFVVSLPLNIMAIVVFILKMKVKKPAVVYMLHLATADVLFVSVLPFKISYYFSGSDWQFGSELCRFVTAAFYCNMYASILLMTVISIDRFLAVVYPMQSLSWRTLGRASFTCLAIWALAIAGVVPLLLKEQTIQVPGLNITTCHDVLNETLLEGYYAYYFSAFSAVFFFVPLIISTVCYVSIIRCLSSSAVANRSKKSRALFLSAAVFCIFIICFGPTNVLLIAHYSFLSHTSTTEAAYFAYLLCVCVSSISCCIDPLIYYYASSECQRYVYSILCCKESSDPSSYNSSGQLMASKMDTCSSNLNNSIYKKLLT

| Structure (SMILES) | IC50 |
| --- | --- |
| CC(=O)N(C(=O)c1cc2ccccc2oc1=O)[C@@H](Cc1ccc(F)cc1)C(=O)N[C@@H](Cc1ccc(NC(=N)N)cc1)C(=O)N[C@@H](CC(C)C)C(=O)N[C@@H](CCCN=C(N)N)C(N)=O | 4330 nM |
| CC(=O)N(C(=O)/C=C/c1ccccc1)[C@@H](Cc1ccc(F)cc1)C(=O)N[C@@H](Cc1ccc(NC(=N)N)cc1)C(=O)N[C@@H](CC(C)C)C(=O)N[C@@H](CCCN=C(N)N)C(=O)N[C@@H](CCCN)C(=O)CCC(N)=O | 21.9 nM |
| CC(=O)N(C(=O)/C=C/c1ccccc1)[C@@H](Cc1ccc(F)cc1)C(=O)N[C@@H](Cc1cccnc1)C(=O)N[C@@H](CC(C)C)C(=O)N[C@@H](CCCN=C(N)N)C(N)=O | 340 nM |
| CC(=O)N(C(=O)/C=C/c1ccccc1)[C@@H](Cc1ccccc1)C(=O)N[C@@H](Cc1ccc(NC(=N)N)cc1)C(=O)N[C@@H](CC(C)C)C(=O)N[C@@H](CCCN=C(N)N)C(N)=O | 24 nM |
| CC(=O)N(c1cccc(F)c1)[C@@H](Cc1ccc(F)cc1)C(=O)N[C@@H](Cc1ccc(NC(=N)N)cc1)C(=O)N[C@@H](CC(C)C)C(=O)N[C@@H](CCCN=C(N)N)C(N)=O | 160 nM |
| CC(=O)N(C(=O)/C=C/c1ccccc1)[C@@H](Cc1ccc(F)cc1)C(=O)N[C@@H](Cc1ccc(NC(=N)N)cc1)C(=O)N[C@@H](CC(C)C)C(=O)N[C@@H](CCCN=C(N)N)C(=O)N[C@@H](CCCN)C(N)=O (X3-[Phe(4-guanidino)]LR[Orn]-NH2) | 6.6 nM |
| CC(=O)N(C(=O)CSc1ccccc1)[C@@H](Cc1ccc(F)cc1)C(=O)N[C@@H](Cc1ccc(NC(=N)N)cc1)C(=O)N[C@@H](CC(C)C)C(=O)N[C@@H](CCCN=C(N)N)C(N)=O | 19 nM |
| CC(=O)N(Oc1cccs1)[C@@H](Cc1ccc(F)cc1)C(=O)N[C@@H](Cc1ccc(NC(=N)N)cc1)C(=O)N[C@@H](CC(C)C)C(=O)N[C@@H](CCCN=C(N)N)C(N)=O | 220 nM |
| CC(=O)N(C(=O)/C=C/c1ccccc1)[C@@H](Cc1ccc(F)cc1)C(=O)N[C@@H](CCCCN)C(=O)N[C@@H](CC(C)C)C(=O)N[C@@H](CCCN=C(N)N)C(N)=O | 39 nM |
| CC(=O)N(C(=O)/C=C/c1cccc(Cl)c1)[C@@H](Cc1ccc(F)cc1)C(=O)N[C@@H](Cc1ccc(NC(=N)N)cc1)C(=O)N[C@@H](CC(C)C)C(=O)N[C@@H](CCCN=C(N)N)C(N)=O | 41 nM |
| CC(=O)N(C(=O)/C=C/c1ccc(F)cc1)[C@@H](Cc1ccc(F)cc1)C(=O)N[C@@H](Cc1ccc(NC(=N)N)cc1)C(=O)N[C@@H](CC(C)C)C(=O)N[C@@H](CCCN=C(N)N)C(=O)N[C@@H](CCCN)C(=O)CC(N)=O | 25 nM |
| CC(=O)N(C(=O)/C=C/c1ccccc1)[C@@H](Cc1cccs1)C(=O)N[C@@H](Cc1ccc(NC(=N)N)cc1)C(=O)N[C@@H](CC(C)C)C(=O)N[C@@H](CCCN=C(N)N)C(N)=O | 42 nM |
| CC(C)C[C@H](NC(=O)[C@H](Cc1ccc(NC(=N)N)cc1)NC(=O)[C@H](Cc1ccc(F)cc1)NC(=O)c1cc2ccccc2[nH]1)C(=O)N[C@@H](CCCN=C(N)N)C(N)=O (X5-[Phe(4-F)][Phe(4-guanidino)]LR-NH2) | 24 nM |
| CC(=O)N(C(=O)/C=C/c1ccccc1)[C@@H](Cc1ccc(F)cc1)C(=O)N[C@@H](Cc1ccc(NC(=N)N)cc1)C(=O)N[C@@H](CC(C)C)C(N)=O | 110 nM |
| CC(=O)N(C(=O)/C=C/c1ccccc1)[C@@H](Cc1ccc(F)cc1)C(=O)N[C@@H](CCCN=C(N)N)C(=O)N[C@@H](CC(C)C)C(=O)N[C@@H](CCCN=C(N)N)C(N)=O | 28 nM |
| CC(=O)N(C(=O)/C=C/c1ccc(F)cc1)[C@@H](Cc1ccc(F)cc1)C(=O)N[C@@H](Cc1ccc(NC(=N)N)cc1)C(=O)N[C@@H](CC(C)C)C(=O)N[C@@H](CCCN=C(N)N)C(N)=O (stereo in doubt; 62) | 23 nM |
| C=CC(=O)c1ccsc1N(C(C)=O)[C@@H](Cc1ccc(F)cc1)C(=O)N[C@@H](Cc1ccc(NC(=N)N)cc1)C(=O)N[C@@H](CC(C)C)C(=O)N[C@@H](CCCN=C(N)N)C(N)=O | 23 nM |
| CC(=O)N(C(=O)/C=C/c1ccccc1)[C@@H](Cc1ccc(F)cc1)C(=O)N[C@@H](CCN=C(N(C)C)N(C)C)C(=O)N[C@@H](CC(C)C)C(=O)N[C@@H](CCCN=C(N)N)C(N)=O | 340 nM |
| CC(=O)N(C(=O)/C=C/c1ccccc1)[C@@H](Cc1ccc(F)cc1)C(=O)N[C@@H](Cc1ccc(Cl)cc1)C(=O)N[C@@H](CC(C)C)C(=O)N[C@@H](CCCN=C(N)N)C(N)=O | 4710 nM |
| CC(=O)N(C(=O)/C=C/c1ccccc1)[C@@H](CC1CCCCC1)C(=O)N[C@@H](Cc1ccc(NC(=N)N)cc1)C(=O)N[C@@H](CC(C)C)C(=O)N[C@@H](CCCN=C(N)N)C(N)=O | 93 nM |
| CC(=O)N(c1c[nH]c2ccccc12)[C@@H](Cc1ccc(F)cc1)C(=O)N[C@@H](Cc1ccc(NC(=N)N)cc1)C(=O)N[C@@H](CC(C)C)C(=O)N[C@@H](CCCN=C(N)N)C(N)=O | 500 nM |
| CC(=O)N(C(=O)/C=C/c1ccc(-c2ccccc2)cc1)[C@@H](Cc1ccc(F)cc1)C(=O)N[C@@H](Cc1ccc(NC(=N)N)cc1)C(=O)N[C@@H](CC(C)C)C(=O)N[C@@H](CCCN=C(N)N)C(N)=O | 1530 nM |

| Structure (SMILES) | IC50 |
| --- | --- |
| CC(=O)N(C(=O)/C=C/c1ccc(F)cc1)[C@@H](Cc1ccc(F)cc1)C(=O)N[C@@H](Cc1ccc(NC(=N)N)cc1)C(=O)N[C@@H](CC(C)C)C(=O)N[C@@H](CCCN=C(N)N)C(=O)N[C@@H](CCCN=C(N)N)C(N)=O (X7-[Phe(4-guanidino)]LRR-NH2) | 19 nM |
| CC(=O)N(c1cccc(Cl)c1)[C@@H](Cc1ccc(F)cc1)C(=O)N[C@@H](Cc1ccc(NC(=N)N)cc1)C(=O)N[C@@H](CC(C)C)C(=O)N[C@@H](CCCN=C(N)N)C(N)=O | 110 nM |
| CC(=O)N(C(=O)/C=C/c1ccc(Cl)cc1)[C@@H](Cc1ccc(F)cc1)C(=O)N[C@@H](Cc1ccc(NC(=N)N)cc1)C(=O)N[C@@H](CC(C)C)C(=O)N[C@@H](CCCN=C(N)N)C(N)=O | 99 nM |
| CC#Cc1ccccc1C(=O)N(C(C)=O)[C@@H](Cc1ccc(F)cc1)C(=O)N[C@@H](Cc1ccc(NC(=N)N)cc1)C(=O)N[C@@H](CC(C)C)C(=O)N[C@@H](CCCN=C(N)N)C(N)=O | 23 nM |
| CC(=O)N(C(=O)/C=C/c1ccccc1)[C@@H](Cc1ccc(F)cc1)C(=O)N[C@@H](Cc1ccc(NC(=N)N)cc1)C(=O)N[C@@H](CC(C)C)C(=O)N[C@@H](CCCN=C(N)N)C(N)=O | 7.8 nM |
| CC(=O)N(C(=O)c1ccccc1N)[C@@H](Cc1ccc(F)cc1)C(=O)N[C@@H](Cc1ccc(NC(=N)N)cc1)C(=O)N[C@@H](CC(C)C)C(=O)N[C@@H](CCCN=C(N)N)C(N)=O | 1000 nM |
| CC(=O)N(C(=O)/C=C/c1ccccc1)[C@@H](Cc1ccc(F)cc1)C(=O)N[C@@H](Cc1ccc(NC(=N)N)cc1)C(N)=O | 780 nM |
| CC(=O)N(CC(=O)N[C@@H](Cc1ccc(NC(=N)N)cc1)C(=O)N[C@@H](CC(C)C)C(=O)N[C@@H](CCCN=C(N)N)C(N)=O)C(=O)/C=C/c1ccccc1 | > 30000 nM |
| CC(C)C[C@H](NC(=O)[C@@H](N)CCCN=C(N)N)C(=O)N[C@@H](CCCN)C(=O)N[C@@H](Cc1ccc(F)cc1)C(=O)NC(=O)/C=C/c1ccccc1 | 170 nM |
| CC(=O)N(C(=O)/C=C/c1ccccc1)[C@@H](Cc1ccc(F)cc1)C(=O)N[C@@H](Cc1ccc(NC(=N)N)cc1)C(=O)N[C@@H](CC(C)C)C(=O)N[C@@H](CCCN)C(N)=O | 17 nM |
| COc1ccc(/C=C/C(=O)N(C(C)=O)[C@@H](Cc2ccc(F)cc2)C(=O)N[C@@H](Cc2ccc(NC(=N)N)cc2)C(=O)N[C@@H](CC(C)C)C(=O)N[C@@H](CCCN=C(N)N)C(N)=O)cc1 | 40 nM |
| CC(=O)N(c1ccsc1)[C@@H](Cc1ccc(F)cc1)C(=O)N[C@@H](Cc1ccc(NC(=N)N)cc1)C(=O)N[C@@H](CC(C)C)C(=O)N[C@@H](CCCN=C(N)N)C(N)=O | 310 nM |
| CC(=O)N(C(=O)/C=C/c1ccccc1)[C@@H](Cc1ccc(F)cc1)C(=O)N[C@@H](Cc1ccccc1)C(=O)N[C@@H](CC(C)C)C(=O)N[C@@H](CCCN=C(N)N)C(N)=O | 1120 nM |
| CC(=O)N(C(=O)/C=C/c1ccc(N)cc1)[C@@H](Cc1ccc(F)cc1)C(=O)N[C@@H](Cc1ccc(NC(=N)N)cc1)C(=O)N[C@@H](CC(C)C)C(=O)N[C@@H](CCCN=C(N)N)C(N)=O | 61 nM |
| CC(=O)N(C(=O)Cc1ccc2ccccc2c1)[C@@H](Cc1ccc(F)cc1)C(=O)N[C@@H](Cc1ccc(NC(=N)N)cc1)C(=O)N[C@@H](CC(C)C)C(=O)N[C@@H](CCCN=C(N)N)C(N)=O | 295 nM |
| CC(=O)N(C(=O)/C=C/c1ccccc1)[C@@H](Cc1ccc(F)cc1)C(=O)N[C@@H](Cc1ccc2ccccc2c1)C(=O)N[C@@H](CC(C)C)C(=O)N[C@@H](CCCN=C(N)N)C(N)=O | 246 nM |
| CC(=O)N(C(=O)c1cccc(C2CCCCC2)c1)[C@@H](Cc1ccc(F)cc1)C(=O)N[C@@H](Cc1ccc(NC(=N)N)cc1)C(=O)N[C@@H](CC(C)C)C(=O)N[C@@H](CCCN=C(N)N)C(N)=O | 2320 nM |
| CCC(=O)c1cccc(N(C(C)=O)[C@@H](Cc2ccc(F)cc2)C(=O)N[C@@H](Cc2ccc(NC(=N)N)cc2)C(=O)N[C@@H](CC(C)C)C(=O)N[C@@H](CCCN=C(N)N)C(N)=O)c1 | 42 nM |
| CC(C)C[C@H](NC(=O)[C@H](Cc1ccc(NC(=N)N)cc1)NC(=O)[C@H](Cc1ccc(F)cc1)NC(=O)c1ccc(Cl)cc1)C(=O)N[C@@H](CCCN=C(N)N)C(N)=O ({Benzoyl(4-Cl)}-[Phe(4-F)][Phe(4-guanidino)]LR-NH2) | 26 nM |
| CC(=O)N(C(=O)/C=C/c1ccccc1)[C@@H](Cc1ccc(F)cc1)C(=O)N[C@@H](Cc1c[nH]cn1)C(=O)N[C@@H](CC(C)C)C(=O)N[C@@H](CCCN=C(N)N)C(N)=O | 470 nM |
| CC(=O)N(C(=O)/C=C/c1ccccc1)[C@@H](Cc1ccc(F)cc1)C(=O)N[C@@H](CCCN=C(N(C)C)N(C)C)C(=O)N[C@@H](CC(C)C)C(=O)N[C@@H](CCCN=C(N)N)C(N)=O | 320 nM |

From ChEMBL document CHEMBL1129588, “Development of potent thrombin receptor antagonist peptides” (J Med Chem, 1996)
